Values quoted from earlier work as cited in publication PMC8513935.

Columns and labels:
[1] = derived by the authors as gas->solvent minus gas->water (a hypothetical dry solvent; the ESI), not a two-phase measurement
[2] = log P octanol/water from commercial databases, averaged (the ESI); settings: Octanol (wet), 25 C
[3] = experimental, compiled by the authors from the literature (the ESI cites the sources)

SMILES: CCCCc1ccccc1
- log K of transfer, water to solvent ([1]; Ethanol, 25 C): 3.91 log10 K
- log K of transfer, water to solvent ([1]; Hexadecane, 25 C): 4.44 log10 K
- log K of transfer, water to solvent ([1]; Methanol, 25 C): 3.99 log10 K
- log K of transfer, water to solvent ([1]; Propan-2-ol, 25 C): 4.06 log10 K
- log K of transfer, water to solvent ([1]; Tetrahydrofuran, 25 C): 5.09 log10 K
- log K of transfer, water to solvent [2]: 4.26 log10 K
- log K of transfer, gas to solvent ([3]; Ethanol, 25 C): 4.2 log10 K
- log K of transfer, gas to solvent ([3]; Hexadecane, 25 C): 4.73 log10 K
- log K of transfer, gas to solvent ([3]; Methanol, 25 C): 4.28 log10 K
- log K of transfer, gas to solvent ([3]; Propan-2-ol, 25 C): 4.35 log10 K
- log K of transfer, gas to solvent ([3]; Tetrahydrofuran, 25 C): 5.38 log10 K
- log K of transfer, gas to solvent ([3]; Water, 25 C): 0.29 log10 K

SMILES: C=CCCCCCC
- log K of transfer, water to solvent ([1]; Butyronitrile, 25 C): 4.72 log10 K
- log K of transfer, water to solvent ([1]; Hexadecane, 25 C): 4.98 log10 K
- log K of transfer, water to solvent ([1]; Octan-1-ol(dry), 25 C): 4.76 log10 K
- log K of transfer, water to solvent ([1]; Propionitrile, 25 C): 4.73 log10 K
- log K of transfer, water to solvent [2]: 4.57 log10 K
- log K of transfer, gas to solvent ([3]; Butyronitrile, 25 C): 3.31 log10 K
- log K of transfer, gas to solvent ([3]; Hexadecane, 25 C): 3.57 log10 K
- log K of transfer, gas to solvent ([3]; Octan-1-ol, 25 C): 3.35 log10 K
- log K of transfer, gas to solvent ([3]; Propionitrile, 25 C): 3.32 log10 K
- log K of transfer, gas to solvent ([3]; Water, 25 C): -1.41 log10 K

SMILES: O=C1CCCCN1
- log K of transfer, water to solvent ([1]; Hexadecane, 25 C): -2.79 log10 K
- log K of transfer, water to solvent [2]: -0.465 log10 K
- log K of transfer, gas to solvent ([3]; Hexadecane, 25 C): 4.18 log10 K
- log K of transfer, gas to solvent ([3]; Water, 25 C): 6.97 log10 K

SMILES: C=C
- log K of transfer, water to solvent ([1]; 1,2-Dichloroethane, 25 C): 1.3 log10 K
- log K of transfer, water to solvent ([1]; 2-Methylpropan-1-ol, 25 C): 1.28 log10 K
- log K of transfer, water to solvent ([1]; 2-Methylpropan-2-ol, 25 C): 1.3 log10 K
- log K of transfer, water to solvent ([1]; Acetone, 25 C): 1.5 log10 K
- log K of transfer, water to solvent ([1]; Butan-1-ol, 25 C): 1.28 log10 K
- log K of transfer, water to solvent ([1]; Butan-2-ol, 25 C): 1.26 log10 K
- log K of transfer, water to solvent ([1]; CCl4, 25 C): 1.51 log10 K
- log K of transfer, water to solvent ([1]; Chlorobenzene, 25 C): 1.39 log10 K
- log K of transfer, water to solvent ([1]; Cyclohexanone, 25 C): 1.34 log10 K
- log K of transfer, water to solvent ([1]; Ethanol, 25 C): 1.35 log10 K
- log K of transfer, water to solvent ([1]; Heptan-1-ol, 25 C): 1.25 log10 K
- log K of transfer, water to solvent ([1]; Hexadecane, 25 C): 1.23 log10 K
- log K of transfer, water to solvent ([1]; Hexan-1-ol, 25 C): 1.26 log10 K
- log K of transfer, water to solvent ([1]; Hexane, 25 C): 1.41 log10 K
- log K of transfer, water to solvent ([1]; Methanol, 25 C): 1.35 log10 K
- log K of transfer, water to solvent ([1]; Octan-1-ol(dry), 25 C): 1.22 log10 K
- log K of transfer, water to solvent ([1]; Pentan-1-ol, 25 C): 1.29 log10 K
- log K of transfer, water to solvent ([1]; Propan-1-ol, 25 C): 1.32 log10 K
- log K of transfer, water to solvent ([1]; Propan-2-ol, 25 C): 1.27 log10 K
- log K of transfer, water to solvent ([1]; Tetrahydrofuran, 25 C): 1.54 log10 K
- log K of transfer, water to solvent [2]: 1.13 log10 K
- log K of transfer, gas to solvent ([3]; 1,2-Dichloroethane, 25 C): 0.36 log10 K
- log K of transfer, gas to solvent ([3]; 2-Methylpropan-1-ol, 25 C): 0.34 log10 K
- log K of transfer, gas to solvent ([3]; 2-Methylpropan-2-ol, 25 C): 0.36 log10 K
- log K of transfer, gas to solvent ([3]; Butan-1-ol, 25 C): 0.34 log10 K
- log K of transfer, gas to solvent ([3]; Butan-2-ol, 25 C): 0.32 log10 K
- log K of transfer, gas to solvent ([3]; CCl4, 25 C): 0.57 log10 K
- log K of transfer, gas to solvent ([3]; Chlorobenzene, 25 C): 0.45 log10 K
- log K of transfer, gas to solvent ([3]; Cyclohexanone, 25 C): 0.401 log10 K
- log K of transfer, gas to solvent ([3]; Ethanol, 25 C): 0.41 log10 K
- log K of transfer, gas to solvent ([3]; Heptan-1-ol, 25 C): 0.312 log10 K
- log K of transfer, gas to solvent ([3]; Hexadecane, 25 C): 0.289 log10 K
- log K of transfer, gas to solvent ([3]; Hexan-1-ol, 25 C): 0.318 log10 K
- log K of transfer, gas to solvent ([3]; Hexane, 25 C): 0.471 log10 K
- log K of transfer, gas to solvent ([3]; Methanol, 25 C): 0.41 log10 K
- log K of transfer, gas to solvent ([3]; Octan-1-ol, 25 C): 0.28 log10 K
- log K of transfer, gas to solvent ([3]; Pentan-1-ol, 25 C): 0.35 log10 K
- log K of transfer, gas to solvent ([3]; Propan-1-ol, 25 C): 0.38 log10 K
- log K of transfer, gas to solvent ([3]; Propan-2-ol, 25 C): 0.33 log10 K
- log K of transfer, gas to solvent ([3]; Propanone, 25 C): 0.56 log10 K
- log K of transfer, gas to solvent ([3]; Tetrahydrofuran, 25 C): 0.6 log10 K
- log K of transfer, gas to solvent ([3]; Water, 25 C): -0.94 log10 K
